Tests used:
[1] = system: Durch Ethanol verursachte Magengeschwüre; test: Ethanol-induced gastric ulcers in fasted female rats; format: in vivo, Ratten; settings: for ED50: Rattus norvegicus, po, 30 min before 0,7 ml absolute ethanol, dose protecting 50 % of the animals
Protocol: (§1) Die mucoprotektive Wirkung auf den Gastrointestinaltrakt verschiedener Verbindungen wurde im Vergleich zu dem bekannten Antiulcusmittel Carbenoxolone an weiblichen Ratten getestet, die für 24 Stunden vor Beginn des Tests fasteten. Diese Tiere wurden den folgenden Tests unterworfen:
(§2) Gruppen von 10 Ratten erhielten abgestufte Dosen der zu untersuchenden Verbindungen oral mittels Schlundsonde; die Verbindungen waren in 0,2 % Methocel suspendiert. Nach 30 Minuten erhielten die Tiere 0,7 ml absolutes Ethanol. 30 Minuten später wurden die Tiere getötet, der Magen entfernt, entlang der großen Curvatur geöffnet und von einem neutralen Beobachter untersucht. Einem Magengeschwür entsprechende Schädigungen wurden auch nach ihrer Schwere beurteilt, aber ihre Häufigkeit (in %) diente als Basis für die Berechnung des prozentualen Schutzes. Die ED50 ist diejenige Dosis einer Verbindung, die 50 % der Tiere schützt; sie wird ausgedrückt durch die Relation Schutz:Dosis.

[2] = system: Durch Natronlauge verursachte Magengeschwüre; test: Sodium hydroxide (0,2 N)-induced gastric ulcers in fasted female rats; format: in vivo, Ratten; settings: for ED50: Rattus norvegicus, po, 1 h, p.o., 0,2 N sodium hydroxide as ulcerogen, animals killed 60 min after it
Protocol: as §1, §2
Der Test verlief in gleicher Weise wie der unter 1. beschriebene. Anstelle von Ethanol wurde 0,2 N Natronlauge als Ulcus verursachendes Agens gewählt und die Tiere 60 Minuten nach dessen Gabe getötet. Die ED50 wurde, wie oben angegeben, bestimmt.

[3] = system: Durch Ethanol verursachte Magengeschwüre bei Ratten, die mit Indomethacin und Acetylsalicylsäure vorbehandelt worden waren; test: Ethanol-induced gastric ulcers in rats pretreated with indomethacin or acetylsalicylic acid (suppression of prostaglandin synthesis); format: in vivo; settings: 30 mg/kg p.o.
Protocol: as §1, §2
Es ist bekannt, daß Prostaglandine einen cytoprotektiven Effekt haben. Weiter ist bekannt, daß Prostaglandine eine antiulcerogene Wirkung haben. Durch eine Hemmung der Prostaglandin-Biosynthese, z.B. durch Acetylsalicylsäure oder Indomethacin, wird die antiulceregene Wirkung unterdrückt.
Gruppen von je 10 Ratten wurden entweder mit Indomethacin (3 mg/kg s.c.) oder Acetylsalicylsäure (10 mg/kg) vorbehandelt und nach 30 bis 60 Minuten die Testsubstanz verabreicht. Dann wurde ein durch Ethanol verursachtes Magengeschwür gesetzt und, wie unter 1. beschrieben, weitergearbeitet.

CC(CS)C(=O)N1CCc2sccc2C1C(=O)O [C, 1-(3-Mercapto-2-(R,S)-methylpropanoyl)-4,5,6,7-tetrahydro-thieno-[3,2-c]pyridin-4-(R,S)-carbonsäure]
ED50 [1]: 6 mg/kg

CC(CS)C(=O)N1CCC[C@@H]1C(=O)O (stereo partly drawn) [Captopril, D-2-Methyl-3-mercaptopropanoyl-L-prolin, reference compound]
% Schutz (% Tier ohne Magengeschwüre) ([1]; 30 mg/kg p.o.): 5% | % Schutz (% Tier ohne Magengeschwüre) ([1]; 55 mg/kg p.o.): 30% | % Schutz (% Tier ohne Magengeschwüre) ([1]; 100 mg/kg p.o.): 70% | ED50 [1]: 74.4 mg/kg

CC1(C)[C@@H](OC(=O)CCC(=O)O)CC[C@]2(C)[C@H]3C(=O)C=C4[C@@H]5C[C@@](C)(C(=O)O)CC[C@]5(C)CC[C@@]4(C)[C@]3(C)CC[C@@H]12 [Carbenoxolone, reference compound]
% Schutz (% Tier ohne Magengeschwüre) ([1]; 30 mg/kg p.o.): 10% | % Schutz (% Tier ohne Magengeschwüre) ([1]; 100 mg/kg p.o.): 60% | % Schutz (% Tier ohne Magengeschwüre) ([1]; 300 mg/kg p.o.): 90% | ED50 [1]: 89 mg/kg | %Schutz-wirkung ([2]; 100 mg/kg p.o.): 33% | %Schutz-wirkung ([2]; 170 mg/kg p.o.): 70% | %Schutz-wirkung ([2]; 300 mg/kg p.o.): 80% | ED50 [2]: 132 mg/kg

C[C@@H](CSC(C[N+](=O)[O-])c1ccccc1)C(=O)N1CCC[C@H]1C(=O)O (stereo partly drawn) [D, 1-[3-(1-Phenyl-2-nitro-äthylthio)-2-R-methylpropanoyl]-L-prolin]
ED50 [1]: 0.6 mg/kg

CCOC(=O)[C@H](CCc1ccccc1)N[C@@H](C)C(=O)N1CCc2ccsc2[C@H]1C(=O)O [E, N-[N-1-(S-Ethoxycarbonyl-3-phenylpropyl)-2-S-alanyl]-4,5,6,7-tetrahydro-thieno[2,3-c]pyridin-7-R-carbonsäure]
ED50 [1]: 12 mg/kg

CC(=O)SC[C@@H](C)C(=O)N1CCc2sccc2C1C(=O)O (stereo partly shown) [F]
ED50 [1]: 3 mg/kg

C[C@H](CS)C(=O)N1CCC[C@H]1C(=O)OCOC(=O)C(C)(C)C [G, 1-(3-Mercapto-Z-D-methylpropanoyl)-L-prolin-pivaloyloxymethylester]
% Schutz (% Tier ohne Magengeschwüre) ([1]; 3 mg/kg p.o.): 30% | % Schutz (% Tier ohne Magengeschwüre) ([1]; 10 mg/kg p.o.): 50% | % Schutz (% Tier ohne Magengeschwüre) ([1]; 30 mg/kg p.o.): 40% | ED50 [1]: 4 mg/kg | %Schutz-wirkung ([2]; 3 mg/kg p.o.): 10% | %Schutz-wirkung ([2]; 10 mg/kg p.o.): 39% | %Schutz-wirkung ([2]; 17 mg/kg p.o.): 70% | %Schutz-wirkung ([2]; 30 mg/kg p.o.): 80% | ED50 [2]: 11.7 mg/kg | % Schutzwirkung ([3]; pretreatment: Acetylsalicylsäure 10 mg/kg p.o., 60 min before ethanol): 10% | % Schutzwirkung ([3]; pretreatment: Indomethacin 3 mg/kg s.c., 30 min before ethanol): 40% | % Schutzwirkung ([3]; pretreatment: saline (control)): 100%

From patent EP0187956A2, “Pharmaceutical composition for the treatment of defects of the gastrointestinal mucous membrane” (BOEHRINGER INGELHEIM KG, priority 1984, dated 1986)
